Laboratory results published in publication PMC13130965, “An Integrated Approach Combining Regulatory Tests in tg(cyp19a1b:GFP) Zebrafish Embryos to Assess Toxicity, Developmental Effects, and Estrogenic Activity of Chemicals: A Case Study with Bisphenol A Substitutes” (Environmental Science & Technology, 2026).
In brackets after ≈: the same amount, converted by molar mass. Several values for one entry are separate records, joined by “and”; a condition that tells them apart may be missing. Equal values may be shown once. Read-outs that look alike come from different tables or passages of the source.

Tests used:
[1] = Refined Fish Embryo Acute Toxicity test (FET, OECD TG 236): mortality; format: in vivo, zebrafish (Danio rerio); settings: tg(cyp19a1b:GFP), zebrafish, in vivo, LC50 (96h) experimental (FET test), nominal, brackets 95% CI
hERβ [2] = tested on: hERβ; parameters: method as in Pelch et al.; settings: HepG2-hERβ, ref Pelch et al., cited from earlier work
Fathead minnow = settings: 4-days exposure, ref Corrales et al. (2017); cited from earlier work
[3] = ref Adamovsky et al.; cited from earlier work
[4] = tested on: tg(cyp19a1b:GFP) zebrafish embryos; test: Refined FET: developmental effects / malformations; format: in vivo, zebrafish (Danio rerio); settings: nominal
[5] = tested on: Zebrafish embryos ERE-GFP-Casper; parameters: method as in Green et al. (2016); settings: 120h exposure; ref Green et al. (2016); cited from earlier work
hERβ [6] = tested on: hERβ; parameters: method as in Grimaldi et al.; settings: HELN-hERβ; ref Grimaldi et al.; cited from earlier work
Adult Zebrafish = settings: ref Ren et al. (2017); cited from earlier work
Zebrafish embryos = settings: cited from earlier work; for LC50: read-out: LC50(96h)
[7] = tested on: cyp19a1b:GFP (brain aromatase) in tg(cyp19a1b:GFP) zebrafish embryos; test: EASZY assay (OECD TG 250): GFP induction; format: in vivo, zebrafish (Danio rerio); settings: Danio rerio, 96 h
[8] = experimental value; ref Epi-Suite (US-EPA); cited from earlier work
[9] = 72h exposure, ref Duan et al. (2008)
[10] = 120h-exposure, ref Qiu et al. (2021)
[11] = 150h exposure, ref Song et al. (2014)
[12] = zebrafish embryos, ref Ren et al. (2017)

SMILES: CC(C)(c1ccc(O)cc1)c1ccc(O)cc1 [BPA, 4-[2-(4-hydroxyphenyl)propan-2-yl] phenol]
- LC50 at 96 h [1]: 14.1 µg/mL (≈ 61.9 µM)
- EC50 (hERβ [2]; NA = not active): 0.35 µM
- maximal efficacy (hERβ [2]): 97%
- LC50(96h) (Fathead minnow): 4.2 µg/mL (≈ 18.4 µM)
- Log Kow [3]: 3.32
- EC50 ([4]; Danio rerio, end of 96 h exposure, read-out: EC50 malformations (cumulative sublethal end points)): 6.06 µg/mL (≈ 26.5 µM)
- LOEC edema [4]: 10 mg/L
- LOEC growth retardation [4]: 20 mg/L
- LOEC heart rate disruption [4]: 20 mg/L
- LOEC hemorrhage [4]: 10 mg/L
- LOEC no spontaneous movement [4]: 10 mg/L
- LOEC no/Less pigmentation [4]: 10 mg/L
- LOEC tail/spinal malformations [4]: 10 mg/L
- LOEC deformity of yolk ([4]; at least 10% of embryos affected): 20 mg/L
- EC50 [5]: 1.226 µg/mL (≈ 5.37 µM)
- LOEC [5]: 1000 µg/L and 4380.32 nM
- EC50 (hERβ [6]): 0.384 µM
- maximal efficacy (hERβ [6]): 66%
- LC50(24h) (Adult Zebrafish): 9.51 µg/mL (≈ 41.7 µM)
- LC50(48h) (Adult Zebrafish): 9.31 µg/mL (≈ 40.8 µM)
- LC50(72h) (Adult Zebrafish): 8.09 µg/mL (≈ 35.4 µM)
- LC50(96h) (Adult Zebrafish): 8.09 µg/mL (≈ 35.4 µM)
- mortality (Zebrafish embryos; 100 µM (23 mg/L) at 72h, ref Björnsdotter et al. (2017)): 100%
- mortality (Zebrafish embryos; 20 mg/L, 48h, ref Makarova et al. (2016)): 65%
- LC10(96h) (Zebrafish embryos; 4-days exposure, ref Blanc et al. (2019)): 6.62 µg/mL (≈ 29 µM)
- LC50(48h) (Zebrafish embryos; 4-days exposure, ref Tišler et al. (2016)): 15.9 (13.8-18.3) mg/L
- mortality (Zebrafish embryos; 5-15 µM, ref McCormick et al. (2010)): 4-8%
- LC50(24h) (Zebrafish embryos; [9]): 16.75 µg/mL (≈ 73.4 µM)
- NOEC (Zebrafish embryos; [9]): 2 mg/L
- LOEC (body length, GnRH3 neurons, reproductive neuroendocrine-related genes and hormones) (Zebrafish embryos; [10]): 100 µg/L
- NOEC (body length, GnRH3 neurons, reproductive neuroendocrine-related genes and hormones) (Zebrafish embryos; [10]): 1 µg/L
- LC50(144h) (Zebrafish embryos; [11]): 7.5 µg/mL (≈ 32.9 µM)
- LOAELs (Zebrafish embryos; [11]): 5 mg/L
- NOEC (developmental toxicity) (Zebrafish embryos; Wildtype (AB/TL), 1-6 dpf static + 6-9 dpf semistatic, ref Catron et al. (2018; 2019)): 11.5 µM
- LC50(96h) (Zebrafish embryos; Zebrafish, 4-days exposure, ref Corrales et al. (2017)): 12.8 µg/mL (≈ 56.1 µM)
- scoliosis (% of embryos) (Zebrafish embryos; at 8.041 mg/L, 2-5 dpf exposure, ref Martínez et al. (2019)): 16%
- mortality (Zebrafish embryos; at 25 mg/L, ref Duan et al. (2008)): 100%
- LC50 (Zebrafish embryos; 4-days exposure, ref Chow et al. (2013)): 35 µM
- LC50 (Zebrafish embryos; Wildtype AB, 96h-exposure, ref Arrokhman et al. (2023)): 57.1 µM
- delayed hatching EC50(96h) (Zebrafish embryos; ref Chow et al. (2013)): 5.25 µg/mL
- LC50(5dpf) (Zebrafish embryos; ref McCormick et al. (2011)): 5 (±0.89) mg/L
- LC50(28dpf) (Zebrafish embryos; ref McCormick et al. (2011)): 1.8 µg/mL (≈ 7.88 µM)
- LOAEL(5dpf) (Zebrafish embryos; ref McCormick et al. (2011)): 1 mg/L
- Edema EC50(48h) (Zebrafish embryos; ref Tišler et al. (2016)): 13.9 (8.5-22.8) mg/L
- Hatching inhibition EC50(72h) (Zebrafish embryos; ref Tišler et al. (2016)): 4.0 µg/mL
- Missing blood flow EC50(48h) (Zebrafish embryos; ref Tišler et al. (2016)): 12.3 µg/mL
- Pigmentation EC50(48h) (Zebrafish embryos; ref Tišler et al. (2016)): 3.6 (2.5-5.3) mg/L
- LC50 (96h) literature (Zebrafish embryos; zebrafish embryos, 95% CI, ref Chow et al.): 8.041 [7.846;8.24] mg/L
- LC50 (96h) literature (Zebrafish embryos; zebrafish embryos, 95% CI, ref Mu et al.): 10.4 [9.44–11.58] mg/L
- LC50 (96h) literature (Zebrafish embryos; zebrafish embryos, parentheses SEM, ref Moreman et al.): 12 (0.22) mg/L
- LC50 (96h) literature (Zebrafish embryos; zebrafish embryos, ref Arrokhman et al.): 13 mg/L (≈ 56.9 µM)
- LC50 (96h) literature (Zebrafish embryos; zebrafish embryos, ref Blanc et al.): 9.82 mg/L (≈ 43 µM)
- LC50 (96h) literature (Zebrafish embryos; zebrafish embryos, ref Gao et al.): 11.69 mg/L (≈ 51.2 µM)
- Body length LOEC (Zebrafish embryos; [12]): 4 mg/L
- Body length NOEC (Zebrafish embryos; [12]): 2 mg/L
- LC50 (96h) literature (Zebrafish embryos; zebrafish embryos, ref Ren et al.): 5.82 mg/L (≈ 25.5 µM)
- minimal effective concentration ([7]; read-out: EASZY LOEC (GFP induction), nominal): 0.625 µg/mL
- EC50 ([7]; read-out: EASZY relative EC50, nominal): 0.98 µg/mL (≈ 4.29 µM)
- Water solubility [8]: 300 µg/mL
